{"source": "patent US4250170A", "about": "“Antibacterial agents Bu-2349A and B and method of using same” (Bristol-Myers Company, priority 1979, dated 1981)", "key": {"[1]": {"tested_on": "Staphylococcus aureus Terajima (Sa-33)", "assay": "MIC, two-fold agar dilution", "format": "cell-based", "settings": "18 h, Table 3, Mueller-Hinton agar, 10^-4 dilution"}, "[2]": {"tested_on": "Staphylococcus aureus (Sa-77), ANT(4')", "assay": "MIC, two-fold agar dilution", "format": "cell-based", "settings": "18 h"}, "[3]": {"tested_on": "Staphylococcus epidermidis (Si-2), ANT (4')", "assay": "MIC, two-fold agar dilution", "format": "cell-based", "settings": "18 h, Table 3, Mueller-Hinton agar, 10^-4 dilution, enzyme ANT (4')"}, "[4]": {"tested_on": "Streptococcus pyogenes (Sp-3)", "assay": "MIC, two-fold agar dilution", "format": "cell-based", "settings": "18 h, Table 3, GC agar, 10^-2 dilution"}, "[5]": {"tested_on": "Streptococcus pneumoniae (Dp-4)", "assay": "MIC, two-fold agar dilution", "format": "cell-based", "settings": "18 h, Table 3, GC agar, 10^-2 dilution"}, "[6]": {"tested_on": "Mycobacterium phlei D88 (Mp-1)", "assay": "MIC, two-fold agar dilution", "format": "cell-based", "settings": "Mycolicibacterium phlei, 18 h; Table 3; Mueller-Hinton agar, 10^-4 dilution"}, "[7]": {"tested_on": "Mycobacterium ranae ATCC 110 (Mr-1)", "assay": "MIC, two-fold agar dilution", "format": "cell-based", "settings": "ATCC110, 18 h, Table 3, Mueller-Hinton agar, 10^-4 dilution"}, "[8]": {"tested_on": "Escherichia coli (Ec-49), APH(3')-2", "assay": "MIC, two-fold agar dilution", "format": "cell-based", "settings": "18 h, Table 3, Mueller-Hinton agar, 10^-4 dilution, enzyme APH(3')-2"}, "[9]": {"tested_on": "Escherichia coli (Ec-62), AAC(3)- 1", "assay": "MIC, two-fold agar dilution", "format": "cell-based", "settings": "18 h, Table 3, Mueller-Hinton agar, 10^-4 dilution, enzyme AAC(3)- 1"}, "[10]": {"tested_on": "Escherichia coli (Ec-72), ANT(2\")", "assay": "MIC, two-fold agar dilution", "format": "cell-based", "settings": "18 h, Table 3, Mueller-Hinton agar, 10^-4 dilution, enzyme ANT(2\")"}, "[11]": {"tested_on": "Klebsiella pneumoniae (Kp-33), AAC(3)-3", "assay": "MIC, two-fold agar dilution", "format": "cell-based", "settings": "18 h, Table 3, Mueller-Hinton agar, 10^-4 dilution, enzyme AAC(3)-3"}, "[12]": {"tested_on": "Serratia marcescens (Sm-2)", "assay": "MIC, two-fold agar dilution", "format": "cell-based", "settings": "18 h, Table 3, Mueller-Hinton agar, 10^-4 dilution"}, "[13]": {"tested_on": "Neisseria gonorrhoeae (Ng-1)", "assay": "MIC, two-fold agar dilution", "format": "cell-based", "settings": "18 h, Table 3, GC agar, 10^-2 dilution"}, "[14]": {"tested_on": "Bacteroides fragilis (Bf-3)", "assay": "MIC against anaerobic bacteria", "format": "cell-based", "settings": "18 h, Table 4, GAM Medium, pH 7"}, "[15]": {"tested_on": "Bacteroides fragilis (Bf-7)", "assay": "MIC against anaerobic bacteria", "format": "cell-based", "settings": "18 h, Table 4, GAM Medium, pH 7"}, "[16]": {"tested_on": "K. pneumoniae A9977", "assay": "experimental infections in mice", "format": "in vivo", "settings": "Klebsiella pneumoniae, A9977, 120 h, im, 100 X LD50 ip challenge, 5 days, read-out: PD50 (median protective dose)", "experimental": "(§1) The in vivo antibacterial activity of Bu-2349A was determined by experimental infections in mice. Mice were challenged via the intraperitoneal route with a 100 X LD50 dose of the pathogens in a 5% suspension of hog gastric mucin (American Laboratories, Omaha, Neb.). Bu-2349A was administered by the intramuscular route immediately after the bacterial challenge."}, "[17]": {"tested_on": "P. mirabilis A9554", "assay": "experimental infections in mice", "format": "in vivo", "settings": "Proteus mirabilis, A9554, 120 h, im, 100 X LD50 ip challenge, 5 days, read-out: PD50 (median protective dose)", "experimental": "as §1"}, "[18]": {"tested_on": "P. vulgaris A9436", "assay": "experimental infections in mice", "format": "in vivo", "settings": "Proteus vulgaris, A9436, 120 h, im, 100 X LD50 ip challenge, 5 days, read-out: PD50 (median protective dose)", "experimental": "as §1"}, "[19]": {"tested_on": "S. aureus Smith", "assay": "experimental infections in mice", "format": "in vivo", "settings": "Staphylococcus aureus, 120 h, im, 100 X LD50 ip challenge, 5 days, read-out: PD50 (median protective dose)", "experimental": "as §1"}, "[20]": {"tested_on": "S. pneumoniae A20759", "assay": "experimental infections in mice", "format": "in vivo", "settings": "im", "experimental": "as §1"}, "[21]": {"assay": "acute LD50 in mice", "settings": "mouse, in vivo"}, "[22]": {"tested_on": "gram-positive and gram-negative bacteria", "assay": "in vitro antibacterial activity, overall statements", "format": "cell-based", "experimental": "The minimum inhibitory concentrations (MIC) of Bu-2349A and B were determined against a wide variety of bacteria by the two-fold agar dilution method. Mueller-Hinton agar medium was generally used for the determination of bacterial MIC except for species of Streptococcus, Neisseria and Hemophilus for which Gonococcus agar medium (GC agar, Nissui Co., Tokyo) was used. Gifu anaerobe agar medium (GAM agar, Eiken Co., Tokyo) was used for anaerobic bacteria. The MIC's were determined after overnight incubation at 37° C. with an initial inoculum equivalent to a 10^-4 dilution of an 18-hour culture for the aerobic and anaerobic bacteria, except for Streptococcus, Neisseria and Hemophilus for which a 10^-2 dilution was used.\nThe influence of inoculum size on MIC was tested on Mueller-Hinton agar using an inoculum of […], 10^-2 or 10^-4 dilution of the overnight culture of test organisms.\nThe effect of media pH on the MIC's of Bu-2349A was determined at three pH levels (6, 7 and 8) using Mueller-Hinton agar.\nThe media effect on the MIC's of Bu-2349A was tested using four kinds of assay media: Mueller-Hinton agar (MHA), nutrient agar (NA), heart infusion agar (HIA) and brain heart infusion agar (BHIA). The pH was adjusted at 7 and a 10^-4 dilution of overnight culture was used for the inoculum."}}}
{"smiles": "C=C1OC(OC2C(CO)OC(Oc3ccc(C(=O)NCCCNCCCCNCCCCN)cc3)C2O)C(O)C(OC2OC(CO)C(OC3OC(C)C(N)C(O)C3NC(=O)C(C)N)C(O)C2O)C1O", "note": "(centres unmarked) [Bu-2349A]", "values": [{"measurement": "MIC", "setting": "[1]", "result": 1.6, "unit": "µg/mL"}, {"measurement": "MIC", "setting": "[2]", "result": 12.5, "unit": "µg/mL"}, {"measurement": "MIC", "setting": "[3]", "result": 3.1, "unit": "µg/mL"}, {"measurement": "MIC", "setting": "[4]", "result": "> 100", "unit": "µg/mL"}, {"measurement": "MIC", "setting": "[5]", "result": "> 100", "unit": "µg/mL"}, {"measurement": "MIC", "setting": "[6]", "result": 3.1, "unit": "µg/mL"}, {"measurement": "MIC", "setting": "[7]", "result": 3.1, "unit": "µg/mL"}, {"measurement": "MIC", "setting": "[8]", "result": 1.6, "unit": "µg/mL"}, {"measurement": "MIC", "setting": "[9]", "result": 1.6, "unit": "µg/mL"}, {"measurement": "MIC", "setting": "[10]", "result": 1.6, "unit": "µg/mL"}, {"measurement": "MIC", "setting": "[11]", "result": 3.1, "unit": "µg/mL"}, {"measurement": "MIC", "setting": "[12]", "result": 25, "unit": "µg/mL"}, {"measurement": "MIC", "setting": "[13]", "result": "> 100", "unit": "µg/mL"}, {"measurement": "MIC", "setting": "[14]", "result": "> 100", "unit": "µg/mL"}, {"measurement": "MIC", "setting": "[15]", "result": "> 100", "unit": "µg/mL"}, {"measurement": "ED50", "setting": "[16]", "result": 7.2, "unit": "mg/kg"}, {"measurement": "ED50", "setting": "[17]", "result": 16, "unit": "mg/kg"}, {"measurement": "ED50", "setting": "[18]", "result": 12, "unit": "mg/kg"}, {"measurement": "ED50", "setting": "[19]", "result": 3.2, "unit": "mg/kg"}, {"measurement": "ED50", "setting": "[20]; Streptococcus pneumoniae, A20759, 120 h, 100 X LD50 ip challenge, 5 days, read-out: PD50 (median protective dose)", "result": "> 100", "unit": "mg/kg"}, {"measurement": "activity against the S. pneumoniae infection", "setting": "[20]", "result": "inactive"}, {"measurement": "LD50", "setting": "[21]; im, intramuscular", "result": 315, "unit": "mg/kg"}, {"measurement": "LD50", "setting": "[21]; intravenous", "result": 35, "unit": "mg/kg"}, {"measurement": "effect of inoculum size on antibiotic activity", "setting": "[22]; Mueller-Hinton agar, 10^0, 10^-2 or 10^-4 dilution", "result": "no significant effect"}, {"measurement": "effect of medium on activity", "setting": "[22]; NA and HIA compared with MHA or BHIA, pH 7", "result": "higher activity in NA and HIA than in MHA or BHIA"}, {"measurement": "inhibitory activity both in vitro and in vivo", "setting": "[22]; gram-positive and gram-negative bacteria, including aminoglycoside-resistant bacteria, summary statement", "result": "marked inhibitory activity"}, {"measurement": "antibacterial activity", "setting": "[22]; including bacteria which produce aminoglycoside-modifying enzymes", "result": "active"}, {"measurement": "effect of pH 6 on activity", "setting": "[22]; pH 6 compared with pH 7", "result": "much reduced activity"}, {"measurement": "effect of pH 8 on activity", "setting": "[22]; pH 8 compared with pH 7", "result": "approximately twice as active"}]}
